This is an account of results in the supplement of paper PMC8837787.

Structures are written as SMILES.

The subject of this experiment is Saccharomyces cerevisiae ABC16-Green Monster. The experiment in a line: growth inhibition at single dose (up to 150 µM), below the 70% cut-off for dose-response; higher = more potent. The settings on record: 18 h; 30 °C; YPD. In outline:
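Drug-sensitive S. cerevisiae ABC16-Green Monster cells were grown overnight in YPD at 30 °C and diluted to log phase (OD600 0.1–0.2). Each library compound was added at one dose of 150 µM to 200 µl culture per well in 96-well plates, in biological duplicates, with untreated cultures alongside. OD600 was read at 0 h and after 18 h at 30 °C. The value is percent growth inhibition; compounds below 70% in both replicates were not taken to dose-response.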

For the compound `Cc1cc(C(=O)CSc2nc3ccccc3[nH]2)c(C)n1-c1ccc(F)cc1`, the “growth inhibition at single dose” value is below 70%.
Under `CCC(C)NC(=O)c1ccc(NC(=O)C2(c3ccccc3)CCCC2)cc1` (stereo not drawn) stands below 70%; under `COc1cc2c(cc1NC(=O)C(C)N1CCC(C(N)=O)CC1)oc1ccccc12` (stereo not drawn), below 70%.
For `N=C1NC(=O)C(Cc2ccc(OC(F)(F)F)cc2)S1` (stereo not drawn), the “growth inhibition at single dose” value was below 70%.
In the case of `c1nc(NCc2ccc(CN3CCOCC3)cc2)c2sccc2n1`, the “growth inhibition at single dose” value is below 70%.
In the case of `O=C(Nc1ccccc1O)c1ccc(Oc2cccc(C(=O)Nc3ccccc3O)c2)cc1`, the “growth inhibition at single dose” value was below 70%.
The figure for `CN(C)CC(C)(C)CNc1nn2cc(-c3ccccc3)nc2s1` is below 70%; for `Cc1ccc(NC(=O)Nc2cccc(Cl)c2)cc1F` it is below 70%.
As to `Cc1ccnc2nc(C(=O)Nc3cc(C(F)(F)F)ccc3N3CCCCCC3)nn12`, the “growth inhibition at single dose” value is below 70%.
Under `O=C(Nc1ccc(CN2CCOCC2)cc1)c1ccc(-c2ccc(Br)cc2)o1` stands below 70%; under `CCOC(=O)CSCc1noc(COc2ccc(Cl)cc2Cl)n1`, below 70%; under `Clc1cccc(CO[C@H]2CCc3ccccc3[C@@H]2n2ccnn2)c1`, below 70%.
Consider `OC(CNC1CCCCC1)Cn1c2ccccc2c2ccccc21` (stereo not drawn), for which the “growth inhibition at single dose” value was below 70%.
The figure for `Cc1ccc(O)c(C(=O)NCCC(C)C)c1` is below 70%; for `CCOC(=O)c1nn(CCc2ccccc2)c2c1CN(C(=O)c1cc(C)n[nH]1)CC2` it is below 70%.
The figure for `Cc1noc(C)c1S(=O)(=O)N(Cc1ccc(C(=O)NC2CC2)cc1)C1CC1` is below 70%.
Under `CNc1snc(C)c1C(=O)OCc1cc(C(=O)OC)c(C)o1` stands below 70%; under `CNC(=O)c1ccc(CN(C2CC2)S(=O)(=O)c2cc(C)ccc2C)cc1`, below 70%; under `N#Cc1nc(-c2ccccc2F)oc1NCCc1ccccc1`, below 70%.
Take `CC1CC2=C(CC1CNCCCN(C)C)C(C)(C)CCC2` (stereo not drawn): the “growth inhibition at single dose” value was below 70%.
Turning to `O=C(Nc1ccc(Oc2cc(C(F)(F)F)cc(C(F)(F)F)c2)cc1)Nc1ccc(OC(F)(F)F)cc1`, the “growth inhibition at single dose” value was below 70%.
For `Cn1c(Oc2cccc3c2OC(C)(C)C3)c(C#N)c(=O)n(C)c1=O`, the “growth inhibition at single dose” value is below 70%.
With `FC(F)(F)c1ccc(NCCNc2ccc(C(F)(F)F)cn2)nc1`, the “growth inhibition at single dose” value was below 70%.
The figure for `COc1ccc(O)c(C(=O)c2cnc3cc4c(cc3c2)OCCO4)c1` is below 70%; for `COc1ccc(CN2CCOc3ccc(C(C)(O)CN(C)C)cc3C2)cc1C` (stereo not drawn) it is below 70%; for `COc1cc2c(cc1OC)CN(C(=O)c1ccc(OCC(F)(F)F)nc1)CC2` it is below 70%.
The figure for `CC1CCCCN1CCCNC(=O)c1ccc2c(c1)sc1nc(-c3ccc(F)cc3)cn12` (stereo not drawn) is below 70%; for `O=C(Nc1ccc2c(c1)OC1(CCCCC1)O2)c1ccc[nH]c1=S` it is below 70%; for `CCCCCCc1cc2cc(-c3csc(C=Cc4ccccc4)n3)c(=O)oc2cc1O` it is below 70%.
Consider `Nc1ncnc2c1ncn2C[C@@H](O)[C@@H](O)C(=O)O`, for which the “growth inhibition at single dose” value is below 70%.
Take `CCc1ccc(C(=O)Nc2cccc(NC(=O)c3ccccc3C)c2)cc1`: the “growth inhibition at single dose” value was below 70%.
Take `COc1ccc(C=C2SC(Nc3ccccc3)=NC2=O)cc1`: the “growth inhibition at single dose” value is below 70%.
The figure for `Oc1ccc(Cl)cc1CNc1nc2ccccc2[nH]1` is below 70%; for `COc1ccc(-c2cnc3ccc(NCc4ccc(S(N)(=O)=O)cc4)nn23)cn1` it is below 70%.
The figure for `COc1ccc(C2C(C(=O)Nc3cccc(OC)c3)c3ccccc3C(=O)N2C2CCCCC2)cc1` (stereo not drawn) is below 70%; for `CCOC(=O)c1c(C)nn(-c2ccc(NC(=O)c3cccs3)cc2)c1C` it is below 70%.
Under `Cc1c(C)n(CC(O)CNC2CCCCC2C)c2ccccc12` (stereo not drawn) stands below 70%; under `O=C(Nc1ccc(N2CCOCC2)cn1)c1ccccc1`, below 70%; under `CC1c2cccc(O)c2C(O)=C2C(=O)C3(O)C(O)=C(C(N)=O)C(=O)C(N(C)C)C3C(O)C21` (stereo not drawn) [Doxycycline], below 70%.
As to `Cc1[nH]c2ccccc2c1/C=N/n1c(-c2ccc(Cl)cc2Cl)cs/c1=N\CC1CCCO1` (stereo not drawn), the “growth inhibition at single dose” value was below 70%.
The figure for `COc1ccc(/C=C2\N=C(SCC(=O)O)N(Cc3ccccc3)C2=O)cc1` is below 70%.
For the compound `O=C(C1CCN(c2cc(-n3cccc3)ncn2)CC1)N1CCc2ccccc2C1`, the “growth inhibition at single dose” value was below 70%.
`CC(C)(C)c1ccc(NC(=O)c2cnccn2)cc1`: the “growth inhibition at single dose” value was below 70%.
Under `Nc1ncnc2c1ncn2[C@@H]1O[C@H](COS(=O)(=O)NC(=O)c2ccccc2O)[C@@H](O)[C@H]1O` stands below 70%.
With `CCc1ccc(CNCC(O)c2ccccc2)cc1` (stereo not drawn), the “growth inhibition at single dose” value is below 70%.
As to `CCOc1cc(CNC(C)C(O)c2ccccc2)cc(Cl)c1OCC` (stereo not drawn), the “growth inhibition at single dose” value was below 70%.
The figure for `CCCCn1c(N)c(N(C)CC(=O)Nc2scc(-c3ccccc3)c2C(=O)OCC)c(=O)[nH]c1=O` is below 70%; for `COc1ccc2c(c1)CCCN2C(=O)c1occc1C` it is below 70%; for `Cc1cc(N2CCN(CCO)CC2)n2ncc(-c3ccc(F)cc3)c2n1` it is below 70%.
Under `FC(F)(F)c1cccc(CNC2CCN(CCc3ccccc3)CC2)c1` stands below 70%; under `O=C(Cn1ncc(Cl)c(Cl)c1=O)NCC(=O)Nc1ccc(F)c(F)c1F`, below 70%; under `Cc1cc(C(=O)Nc2ccc(Cl)cc2)c(C)n1-c1ccccc1`, below 70%.
Under `CCCCN1C(=O)C(=O)N(CC(=O)Nc2sc(Cc3ccc4c(c3)OCO4)c(C)c2C(=O)OCC)C1=O` stands below 70%; under `Clc1ccc2[nH]c3c(NCCCN4CCOCC4)ncnc3c2c1`, below 70%.
Regarding `Cc1cnc(NC(=O)c2ccc(C3SCCS3)cc2)s1`, the “growth inhibition at single dose” value was below 70%.
`CN(C)CCCNCc1ccc(-c2ccc(F)c(Cl)c2)o1`: the “growth inhibition at single dose” value is below 70%.
Under `CCOC(=O)c1c(NC(=O)Cn2ncc(Cl)c(Cl)c2=O)sc(C(=O)NC)c1C` stands below 70%; under `Brc1ccc(-[n+]2nc(-c3ccccc3)nn2-c2nn[nH]n2)cc1`, below 70%; under `CC(C)C(C(=O)Nc1ccc(S(=O)(=O)N(C)C)cc1)c1ccc(Cl)cc1` (stereo not drawn), below 70%.
On to `COc1cc(SC)ccc1C(=O)N1CCCC(C)C1` (stereo not drawn), for which the “growth inhibition at single dose” value was below 70%.
Under `CCCc1c(C)nc2ccccc2c1O` stands below 70%.
Under `COc1cccc(Cn2c(Oc3ccccc3)nc3c2c(=O)n(C)c(=O)n3C)c1` stands below 70%.
Under `Cc1ccnc(NC(=O)C2CC(=O)N(c3ccc(C)c(C)c3)C2)c1` (stereo not drawn) stands below 70%; under `O=c1c2ccccc2[nH]c2ccc(Oc3ncnc4ccsc34)cc12`, below 70%.
For the compound `O=c1nc(/C=C/c2ccc(Cl)cc2)oc2ccccc12`, the “growth inhibition at single dose” value was below 70%.
Consider `Cc1ccc(-c2cc3nc4c(c(O)n3n2)CCCC4)cc1`, for which the “growth inhibition at single dose” value is below 70%.
The figure for `CC(C(=O)NC(N)=O)N(C)Cc1ccc(OCc2ccc(Cl)cc2)cc1` (stereo not drawn) is below 70%; for `Cc1c(C)n(CCCO)c2ncn3nc(-c4ccccc4)nc3c12` it is below 70%.
For `COc1cccc(Cn2nc(C(=O)NC3CC3)c3c2CCN(Cc2cc4c(cc2Cl)OCO4)C3)c1`, the “growth inhibition at single dose” value was below 70%.
In the case of `CCOC(=O)c1cnc2c(C)cc(C)cc2c1Nc1ccc(OC)c(OC)c1`, the “growth inhibition at single dose” value was below 70%.
Under `CCCCNCC(O)(c1ccc(Cl)cc1)c1ccc(Cl)cc1` stands below 70%.
The figure for `Cc1cc(=O)nc(N/N=C/c2c(C)nn(-c3cccc(C(F)(F)F)c3)c2Cl)[nH]1` is below 70%.
The figure for `Cc1cc(C(=O)COC(=O)c2[nH]nc3ccccc23)c(C)n1CC1CCCO1` (stereo not drawn) is below 70%; for `COc1ccc(-c2nc(N3CCN(C(=O)C4CCCCC4)CC3)c3c4c(sc3n2)CCCC4)cc1` it is below 70%.
On to `Cc1ccc(-n2c(C)cc(C(=O)COC(=O)c3ccc[nH]c3=O)c2C)cc1C`, for which the “growth inhibition at single dose” value is below 70%.
`CCOc1ccc(Nc2c3ccccc3nc3ccccc23)cc1`: the “growth inhibition at single dose” value is below 70%.
The figure for `COc1ccc2nccc(NC(=O)C3CCN(CCc4ccc(Cl)cc4)CC3)c2n1` is below 70%.
Turning to `N=c1n(CCN2CCCCC2)c2ccccc2n1CC(O)c1cccc(Br)c1` (stereo not drawn), the “growth inhibition at single dose” value is below 70%.
Consider `CN(C)c1ccc(C(=O)Nc2cnc3ccccc3c2)cc1`, for which the “growth inhibition at single dose” value is below 70%.
`C/N=c1\scc(-c2ccco2)n1/N=C/c1sccc1C`: the “growth inhibition at single dose” value is below 70%.
The figure for `O=C(Cn1ncc(Cl)c(Cl)c1=O)N1N=C(c2ccco2)CC1c1cccs1` (stereo not drawn) is below 70%.
Under `NCC(=O)N1CCn2c(nc(-c3ccccc3)c2Nc2ccc3c(c2)OCO3)C1` stands below 70%; under `N#Cc1ccc(-c2cnc(N)c(-c3ccc(C(N)=O)cc3)n2)cc1`, below 70%.
